PMC7699649 (Communications Biology, 2020)
Non-standard residues stand in square brackets, D forms with d. Residues, ends and D or L forms follow the SMILES beside them.

Tests used:
HEK293 = format: cell-based, human; conditions: 24 h
Protocol: (§1) HeLa and HEK293 cell lines were purchased from ECACC and cultured in Eagle’s Minimum Essential Media containing glutamine, supplemented with 10% FBS and 1X non-essential amino acids. A549 and Calu-3 cell lines were purchased from ATCC. […] Cytotoxicity was measured by incubating starter cultures of cells for 24 h in a 96 well plate, gently removing the supernatant and replacing it with dilutions of peptides and controls, incubating for a further 24 h and then staining of the cells with the second-generation tetrazolium dye, XTT.

EMRSA-15 = assay: 1H HR-MAS NMR metabolomics of bacterial pellets; format: cell-based, Staphylococcus aureus; conditions: EMRSA-15 in MHB, sub-inhibitory challenge v unchallenged; fold change, 1H HR-MAS NMR of pellets
Protocol: S. aureus EMRSA-15 and P. aeruginosa RP73 were streaked on Mueller Hinton agar plates and RPMI (supplemented with 5% FBS) agar plates and incubated at 37 °C overnight or until single colonies formed. […] Cultures were incubated overnight at 37 °C without shaking and pelleted by centrifugation at 4 °C. The supernatant was removed and filtered separately for spent media analysis, the pellet was briefly washed three times with phosphate buffered saline (PBS). The pellets were frozen in liquid nitrogen and lyophilised overnight in an Alpha 1–2 LD plus freeze dryer (Martin Christ, Germany) and stored at −20 °C until required. Samples were transferred into HR-MAS inserts for use in 4 mm Bruker MAS rotor and resuspended in 30 μl of D2O containing 3-(Trimethylsilyl)propionic-2,2,3,3-D4 acid sodium salt (TMSP-2,2,3,3-D4). The removed supernatant was filtered through 0.2 μm filters and pH adjusted to within 0.3 pH units within the same sample set. The samples were supplemented with 10% D2O containing TMSP-2,2,3,3-D4 and loaded into 5.0 mm NMR tubes.
NMR spectra were collected at 600 MHz for ^1H on a Bruker Avance II spectrometer (Bruker Biospin, Coventry, UK) with a 4 mm HR-MAS probe at 310 K while spinning at 5 kHz. ^1H NMR spectra were acquired using a Carr-Purcell Meiboom-Gill pre-saturation (cpmgpr1d) pulse sequence with a spectrum width of 16.0 ppm and 9615 data points using 64 transients. Free induction decay was multiplied by an exponential function with 0.293 Hz line broadening. 2D ^1H–^1H correlation spectroscopy (COSY) and ^1H–^13C Heteronuclear Single Quantum Correlation (HSQC) experiments were performed on representative datasets using standard Bruker settings.
The spectra were Fourier transformed automatically using standard Bruker commands and manually phased and baseline corrected in Bruker TopSpin 4.0 (Bruker Biospin, Coventry, UK). Spectral pre-processing, cross-validation and multivariate analysis were carried out using the in-house programme developed by Dr Louic Vermeer and MVAPACK, an opensource Octave library for NMR metabolomic data processing and analysis. Pre-processing modifies NMR spectra and reduces the variances and influences which are not of interest and may interfere with data analysis, for example, residual water peak or noise and the TSP reference peak. Initially a principle component analysis was carried out to identify clustering spectra and potential outliers in the data, due to e.g. poor baseline. Data were then subject to probabilistic quotient normalisation before binning and alignment. Orthogonal Projections to Latent Structures Discriminant Analysis analyses were conducted to establish the quality of binary comparisons of the metabolomic data (Supplementary Table 4). […] The Mann–Whitney U test was used to compare means and associated p values were false discovery rate adjusted using the Benjamini-Hochberg method (α = 0.05). Box plots were generated using changes in normalised intensity for each metabolite and significant differences between challenges and controls were determined using a one-way ANOVA. Volcano plots and box plots were generated using in-house software developed for Jupyter Notepad using Python 3.7.0. Metabolites were assigned using the databanks: Chenomx NMR suite software (Chenomx Inc., Canada), Human Metabolome Database, BMRB, E. coli Metabolome Database and AOCS lipid library; and a comparison of chemical shifts to the literature, which was confirmed using 2D NMR spectra. Annotated spectra can be found in the supplementary materials (Supplementary Fig. 15). Metaboanalyst and KEGG were later used to identify key pathways that may be affected by these metabolites.

Calu-3 = format: cell-based; conditions: 24 h
Protocol: as §1

HeLa = format: cell-based; conditions: 24 h
Protocol: as §1

A549 = format: cell-based; conditions: 24 h
Protocol: as §1

human red blood cells = assay: Haemolysis assay; format: cell-based; conditions: human red blood cells in PBS, 1 h 37 °C, OD550, relative to 0.1% Triton-X-100
Protocol: Haemolysis was tested by incubating titrations of AMPs in PBS with freshly collected human red blood cells for 1 h at 37 °C. Control wells were treated with 0.1% Triton-X-100 to ensure complete lysis, or PBS-only to represent no lysis. Samples were spun down to remove non-lysed cells and the OD550 of the supernatant was measured using a Clariostar plate reader. The percentage of haemolysis was calculated as % haemolysis = (AP − AB)/(AC − AB) × 100, where AP is the absorbance value for a known peptide concentration, AC is the absorbance of the 0.1% Triton-X-100 control, AB is the absorbance of the PBS control. Data presented are averages and standard error from three biological replicate experiments.

BAL cells = assay: Murine EMRSA-15 lung infection model: BAL total and differential cell count; format: in vivo, C57Bl6J mice; conditions: 48 h
Protocol: Using the recently developed method[65], an overnight culture of EMRSA-15 was prepared in tryptic soy broth (TSB). EMRSA-15 was cultured in TSB overnight at 37 °C, adjusted to a starting OD600 of 0.025, and grown for additional 4 h for agar beads preparation. EMRSA-15 was embedded into agar beads by mixing the overnight culture with molten tryptic soy agar, which was then spun into warmed mineral oil. The preparation was cooled and centrifuged at 2700 × g, the remaining oil was eliminated, and the beads were washed in sterile PBS. The CFU content of the beads slurry was subsequently quantified on TSA plates and the beads slurry then diluted to 2 × 10^7 CFU/ml in sterile PBS to deliver a final dose of 1 × 10^6 CFU/mouse. Animal work was performed in accordance with the Animals (Scientific Procedures) Act of 1986 (United Kingdom) and 2012 revisions with local ethical approval of King’s College London. On day 0, male C57Bl6J mice (8–10 weeks, Charles River) were anaesthetised under Isoflurane and 50 µl inoculum of EMRSA-15 embedded in agar beads (10^6 CFU/mouse) was instilled directly into the respiratory tract via oropharyngeal dosing (o.a.). Sham control mice were inoculated with sterile PBS agar beads. […] Body weight was measured daily, and animals monitored at regular intervals for signs of pain and distress. After 48 h of pulmonary infection, animals were terminally euthanized using 25% urethane via intra-peritoneal injection. CFUs were quantified in lung homogenates. Lung homogenates were then centrifuged at 14000 rpm for 30 min at 4 °C and the supernatants were stored at −80 °C for future analysis. For BAL fluid collection and analysis (total and differential cell count), a 22-gauge catheter was inserted into the trachea and BAL was recovered by instillation of 0.5 ml of sterile PBS three times and total cells counts were performed by adding Turks stain in a 1:1 ratio. BAL fluid was then centrifuged, and supernatants were stored at −20 °C. Total levels of TNFα, IL-6, KC and MCP-1 were quantified from BAL fluid collected from all animals and measured by ELISA according to the manufacturer protocol (R&D Systems UK). Concentrations of all mediators were then normalised to total protein content of BAL fluid quantified via bicinchoninic acid total protein assays performed to manufacturers protocols (Thermofisher Scientific). […] Statistical analysis was by one-way ANOVA with Dunnett’s multiple comparisons test.

MCP-1 = assay: Murine EMRSA-15 lung infection model: BAL cytokine ELISA; format: in vivo, C57Bl6J mice; conditions: vancomycin or D-pleurocidin-KR i.v., 48 h
[1] = Murine EMRSA-15 lung infection model: body weight; format: in vivo, C57Bl6J mice; conditions: cumulative 15 or 1.5 mg/kg/48 h D-pleurocidin-KR; 600 mg/kg vancomycin; i.v.
TNFα = assay: Murine EMRSA-15 lung infection model: BAL cytokine ELISA; format: in vivo, C57Bl6J mice; conditions: vancomycin or D-pleurocidin-KR i.v., 48 h
KC = assay: as above; format: in vivo, C57Bl6J mice; conditions: 600 mg/kg vancomycin or the two higher D-pleurocidin-KR doses (15, 1.5 mg/kg) i.v., 48 h
S. aureus USA300 = conditions: 200 mg/kg vancomycin i.p.; cited from earlier work
IL-6 = assay: Murine EMRSA-15 lung infection model: BAL cytokine ELISA; format: in vivo, C57Bl6J mice; conditions: 600 mg/kg vancomycin or D-pleurocidin-KR (also lowest dose 0.15 mg/kg) i.v., 48 h

| SMILES | Toxicity HEK293 (EC50 / IC50) (HEK293) | fc 2-aminobutyrate (EMRSA-15) | fc Acetate (EMRSA-15) | fc Acetyl-Phosphocholine (1) (EMRSA-15) | fc Acetyl-Phosphocholine (2) (EMRSA-15) | fc Adenosine (EMRSA-15) | fc Alanine (EMRSA-15) | fc Aspartate (EMRSA-15) | fc Betaine (EMRSA-15) | fc Choline (EMRSA-15) | fc Citrulline (EMRSA-15) | fc Glutamate (EMRSA-15) | fc Glycerol (lipid headgroup) (1) (EMRSA-15) | fc Glycerol (lipid headgroup) (2) (EMRSA-15) | fc Glycerol (lipid headgroup) (3) (EMRSA-15) | fc Isoleucine (EMRSA-15) | fc Lactate (EMRSA-15) | fc Leucine (EMRSA-15) | fc Lipid -CH=CH- (EMRSA-15) | fc Lipid-CH₃ (EMRSA-15) | other results |
| --- | --- | --- | --- | --- | --- | --- | --- | --- | --- | --- | --- | --- | --- | --- | --- | --- | --- | --- | --- | --- | --- |
| CC(C)C[C@@H](NC(=O)[C@@H](Cc1ccc(O)cc1)NC(=O)[C@@H](Cc1c[nH]cn1)NC(=O)[C@H](NC(=O)[C@@H](CC(C)C)NC(=O)[C@@H](C)NC(=O)[C@@H](C)NC(=O)[C@@H](CCCCN)NC(=O)CNC(=O)[C@@H](C)NC(=O)[C@@H](Cc1c[nH]cn1)NC(=O)[C@@H](CCCCN)NC(=O)CNC(=O)[C@@H](C)NC(=O)[C@@H](Cc1c[nH]cn1)NC(=O)[C@@H](C)NC(=O)[C@@H](C)NC(=O)[C@@H](CCCCN)NC(=O)[C@@H](CCCCN)NC(=O)[C@@H](Cc1ccccc1)NC(=O)[C@@H](Cc1ccccc1)NC(=O)[C@@H](CO)NC(=O)CNC(=O)[C@@H](Cc1c[nH]c2ccccc12)NC(=O)CN)[C@H](C)O)C(N)=O [D-pleurocidin-VA] (H-G[dW]G[dS][dF][dF][dK][dK][dA][dA][dH][dA]G[dK][dH][dA]G[dK][dA][dA][dL][dT][dH][dY][dL]-NH2; N-terminus assumed) | (217.3 ± 46.5) µg/ml | 0.991 | 1.149 | 0.9923 | 1.003 | 1.125 | 0.9478 | 0.8483 | 0.9779 | 1.051 | 0.9363 | 0.896 | 0.9028 | 1.031 | 0.9777 | 1.148 | 1.293 | 1.172 | 1.134 | 1.116 | fc Lysine (EMRSA-15): 1.027; fc N-acetyl-x (1) (EMRSA-15): 0.8941; fc N-acetyl-x (2) (EMRSA-15): 1.036; fc N-acetyl-x (3) (EMRSA-15): 0.9489; fc Proline (EMRSA-15): 1.056; fc Succinate (EMRSA-15): 0.8785; fc Unassigned 1.47ppm (EMRSA-15): 0.8868; fc Unassigned 3.4802ppm (EMRSA-15): 0.9293; fc Unassigned 8.55ppm (EMRSA-15): 0.9285; fc Uracil (EMRSA-15): 1.738; fc Valine (EMRSA-15): 1.029; fc ᴅ-alanine (LTA) (EMRSA-15): 1.157; Toxicity Calu-3 (EC50 / IC50) (Calu-3): (>250) µg/ml; Toxicity HeLa (EC50 / IC50) (HeLa): (198.2 ± 10.2) µg/ml; Toxicity A549 (EC50 / IC50) (A549): (>250) µg/ml; haemolysis at the highest concentration tested 400 µg/ml (human red blood cells): Neither pleurocidin-VA nor D-pleurocidin-VA induce detectable haemolysis |
| CC(C)C[C@@H](NC(=O)[C@@H](Cc1ccc(O)cc1)NC(=O)[C@@H](Cc1c[nH]cn1)NC(=O)[C@H](NC(=O)[C@@H](CC(C)C)NC(=O)[C@@H](C)NC(=O)[C@@H](C)NC(=O)[C@@H](CCCCN)NC(=O)CNC(=O)[C@H](NC(=O)[C@@H](Cc1c[nH]cn1)NC(=O)[C@@H](CCCCN)NC(=O)CNC(=O)[C@H](NC(=O)[C@@H](Cc1c[nH]cn1)NC(=O)[C@@H](C)NC(=O)[C@@H](C)NC(=O)[C@@H](CCCCN)NC(=O)[C@@H](CCCCN)NC(=O)[C@@H](Cc1ccccc1)NC(=O)[C@@H](Cc1ccccc1)NC(=O)[C@@H](CO)NC(=O)CNC(=O)[C@@H](Cc1c[nH]c2ccccc12)NC(=O)CN)C(C)C)C(C)C)[C@H](C)O)C(N)=O [D-pleurocidin] (H-G[dW]G[dS][dF][dF][dK][dK][dA][dA][dH][dV]G[dK][dH][dV]G[dK][dA][dA][dL][dT][dH][dY][dL]-NH2; N-terminus assumed) | (61.4 ± 3.9) µg/ml | 1.089 | 7.742 | 0.8504 | 0.9675 | 0.737 | 0.9988 | 0.9699 | 1.128 | 0.8079 | 0.7893 | 0.9017 | 1.108 | 0.9648 | 0.9439 | 0.8635 | 0.8326 | 0.8297 | 1.03 | 0.9623 | fc Lysine (EMRSA-15): 0.8706; fc N-acetyl-x (1) (EMRSA-15): 1.103; fc N-acetyl-x (2) (EMRSA-15): 1.06; fc N-acetyl-x (3) (EMRSA-15): 0.8909; fc Proline (EMRSA-15): 0.991; fc Succinate (EMRSA-15): 0.6241; fc Unassigned 1.47ppm (EMRSA-15): 0.9642; fc Unassigned 3.4802ppm (EMRSA-15): 1.011; fc Unassigned 8.55ppm (EMRSA-15): 5.383; fc Uracil (EMRSA-15): 0.4342; fc Valine (EMRSA-15): 0.8108; fc ᴅ-alanine (LTA) (EMRSA-15): 1.199; Toxicity Calu-3 (EC50 / IC50) (Calu-3): (41.9 ± 1.8) µg/ml; Toxicity HeLa (EC50 / IC50) (HeLa): (47.1 ± 2.1) µg/ml; Toxicity A549 (EC50 / IC50) (A549): (79.3 ± 7.2) µg/ml; concentration at which 10% haemolysis is achieved (human red blood cells; three biological replicates): 240 µg/mL |
| CN[C@H](CC(C)C)C(=O)N[C@H]1C(=O)N[C@@H](CC(N)=O)C(=O)N[C@H]2C(=O)N[C@H]3C(=O)N[C@H](C(=O)N[C@H](C(=O)O)c4cc(O)cc(O)c4-c4cc3ccc4O)[C@H](O)c3ccc(c(Cl)c3)Oc3cc2cc(c3O[C@@H]2O[C@H](CO)[C@@H](O)[C@H](O)[C@H]2O[C@H]2C[C@](C)(N)[C@H](O)[C@H](C)O2)Oc2ccc(cc2Cl)[C@H]1O [vancomycin, reference compound] | – | – | – | – | – | – | – | – | – | – | – | – | – | – | – | – | – | – | – | – | neutrophil recruitment (BAL) (BAL cells; 600 mg/kg vancomycin or D-pleurocidin-KR (also lowest dose 0.15 mg/kg) i.v.): reduced; macrophage numbers in BAL (BAL cells; vancomycin or D-pleurocidin-KR i.v.): No effects; levels of MCP-1 in BAL (MCP-1): No effects; weight loss over the 48-h infection period [1]: mitigates this weight loss; levels of TNFα in BAL (TNFα): No effects; KC levels in BAL (KC): fall to that of the uninfected group; reduction in S. aureus USA300 CFU (S. aureus USA300): comparable reduction; IL-6 in BAL (IL-6): reduced |
